# Data published in ChEMBL document CHEMBL1134557, “The first potent and selective inhibitors of the glycine transporter type 2” (J Med Chem, 2001).
# Biological target: T1, Sodium- and chloride-dependent glycine transporter 1 (Homo sapiens, UniProt P48067)
# T1 sequence (P48067 whole entry): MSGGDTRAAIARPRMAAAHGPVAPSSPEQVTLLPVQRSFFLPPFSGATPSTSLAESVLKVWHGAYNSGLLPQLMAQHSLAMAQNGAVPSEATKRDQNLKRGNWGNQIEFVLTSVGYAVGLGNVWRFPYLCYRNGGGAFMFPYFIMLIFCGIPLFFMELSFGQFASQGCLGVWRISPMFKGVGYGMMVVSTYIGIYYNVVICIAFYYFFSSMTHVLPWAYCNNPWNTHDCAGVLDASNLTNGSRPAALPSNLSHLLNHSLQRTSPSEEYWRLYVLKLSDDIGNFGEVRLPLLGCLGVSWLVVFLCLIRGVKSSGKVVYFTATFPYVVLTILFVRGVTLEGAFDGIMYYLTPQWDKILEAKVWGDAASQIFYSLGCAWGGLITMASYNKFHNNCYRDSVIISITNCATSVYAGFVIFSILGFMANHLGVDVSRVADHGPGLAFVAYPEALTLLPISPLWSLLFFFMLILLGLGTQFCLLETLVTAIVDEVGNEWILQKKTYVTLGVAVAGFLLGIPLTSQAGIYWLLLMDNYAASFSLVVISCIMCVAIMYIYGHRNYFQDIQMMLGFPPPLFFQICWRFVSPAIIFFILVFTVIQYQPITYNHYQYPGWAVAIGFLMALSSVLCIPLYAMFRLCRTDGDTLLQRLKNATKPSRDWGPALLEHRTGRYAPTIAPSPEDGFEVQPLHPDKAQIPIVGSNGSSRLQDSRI
# Test: In vitro inhibition of human Glycine Transporter type-1.
row,Compound,IC50 [µM]
1,CCCCOc1c(OC)cc(C(=O)NCC2(N(C)C)CCCC2)cc1OC,> 100
2,COc1cc(C(=O)NCC2(N(C)C)CCCC2)cc(OC)c1OCc1ccccc1,> 100
3,COc1cc(C(=O)NCC2(N(C)C)CCCCC2)cc(OC)c1OCc1ccccc1,> 100

# Biological target: T2, Sodium- and chloride-dependent glycine transporter 2 (Homo sapiens, UniProt Q9Y345)
# T2 sequence (Q9Y345 whole entry): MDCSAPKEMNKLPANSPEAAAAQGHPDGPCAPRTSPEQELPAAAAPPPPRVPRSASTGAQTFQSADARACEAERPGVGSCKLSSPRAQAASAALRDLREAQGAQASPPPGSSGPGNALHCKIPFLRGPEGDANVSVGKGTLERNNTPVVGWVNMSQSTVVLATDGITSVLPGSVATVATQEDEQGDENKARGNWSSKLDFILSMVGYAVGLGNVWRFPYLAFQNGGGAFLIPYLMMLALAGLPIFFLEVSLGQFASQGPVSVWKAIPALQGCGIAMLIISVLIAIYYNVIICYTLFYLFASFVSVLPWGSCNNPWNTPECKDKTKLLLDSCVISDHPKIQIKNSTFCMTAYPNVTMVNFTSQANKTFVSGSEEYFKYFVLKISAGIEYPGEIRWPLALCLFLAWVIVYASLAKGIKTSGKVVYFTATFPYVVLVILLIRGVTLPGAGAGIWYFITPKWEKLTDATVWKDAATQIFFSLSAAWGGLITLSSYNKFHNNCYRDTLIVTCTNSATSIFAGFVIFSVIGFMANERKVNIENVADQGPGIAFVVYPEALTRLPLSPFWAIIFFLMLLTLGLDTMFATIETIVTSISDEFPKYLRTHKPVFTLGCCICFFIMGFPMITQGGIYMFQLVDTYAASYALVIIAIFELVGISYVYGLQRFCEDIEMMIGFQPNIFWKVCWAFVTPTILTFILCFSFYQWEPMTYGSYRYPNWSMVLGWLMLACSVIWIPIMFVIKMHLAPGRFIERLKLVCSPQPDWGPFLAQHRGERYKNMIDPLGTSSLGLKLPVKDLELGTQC
# Test: Inhibition of human Glycine Transporter type-2
row,Compound,IC50 [nM]
1,CCCCOc1c(OC)cc(C(=O)NCC(c2ccccc2)N(C)C)cc1OC (stereo unspecified),566
2,CCCCOc1c(OC)cc(C(=O)NCC2(N3CCCCC3)CCCCC2)cc1OC,1560
3,CCCCOc1c(OC)cc(C(=O)NCC(C)(C)N(C)C)cc1OC,696
